This passage reports IC50 and inhibition results from patent US11661419B2, “Benzimidazole derivative compounds and uses thereof” (Pfizer Inc., priority 2019, dated 2023).

One test deals with IL-2 in activated CD4+ human T-cells. As to the kind of experiment: IL-2 inhibition in supernatants from activated CD4+ human T-cells (cisbio HTRF). Format: cell-based. Conditions: T-cell; geometric mean of count n; CD3/CD28-expanded human CD4+ T cells stimulated with ImmunoCult, 20 to 24 hrs. The procedure:
IL-2-Inhibition Activity, IC50 (uM)
IL-2 inhibition activity in supernatants from activated CD4+ human T-cells was determined by measuring the effect of a test compound on the activity using the cisbio HTRF™ technology.
Human CD4+ T cells were activated with CD3/CD28 for 3 days and expanded for an additional 4-6 days (7 to 9 days total). On day 0, frozen CD4+ T cells were thawed, treated with CD3/CD28 Dynabeads, and incubated at 37° C./5% CO2. On day 3, the beads were removed, and the cells were diluted to 5×10^5 cells/cm^2, placed in G-Rex10 flask, and incubated at 37° C./5% CO2. On day 7 to day 9 the cells were removed from the G-Rex flasks, counted and diluted back to 1×10^6 cells/ml in standard tissue culture flask.
The expanded CD4+ T-cells were centrifuged at 300×g for 10 minutes and resuspended to 0.5 million cells per ml (30,000 cells/well). 60 μl of CD4+ T cells were added per well to a 384 well plate containing 0.1 μL of varying concentrations of test compound in DMSO. The plates were incubated for 15 min at 37° C./5% CO2. 20 μl of diluted ImmunoCult™ ([…] Technologies, 1:12.5 in T cell assay media) were added to all wells of the plate (1:50 final assay concentration). The plates were incubated for an additional 20 to 24 hrs at 37° C./5% CO2. The plates were centrifuged at 300×g for 10 minutes. 16 μL of supernatant was removed and combined with 4 μl of IL-2 HTRF Abs. (cisbio kit). Plates were incubated for 3 hours at RT and read with an EnVision plate reader at 665 nm and 615 nm wavelengths.
In turn, `Cc1cc2[nH]c(-c3n[nH]c4c3C[C@@H]3C[C@]3(C)C4)nc2cc1N(C)C(=O)[C@H](C)C1CCOCC1` [Example 4, (R)—N-methyl-N-(6-methyl-2-((4aS,5aR)-5a-methyl-1,4,4a,5,5a,6-hexahydrocyclopropa[f]indazol-3-yl)-1H-benzo[d]imidazol-5-yl)-2-(tetrahydro-2H-pyran-4-yl)propanamide] gave an IC50 of 22 nM.

As for `Cc1cc2[nH]c(-c3n[nH]c4c3C[C@@H]3C[C@]3(C)C4)nc2cc1N(C)C(=O)C(C)C1CCOCC1` (stereo partly drawn) [Example 5, N-methyl-N-(6-methyl-2-((4aS,5aR)-5a-methyl-1,4,4a,5,5a,6-hexahydrocyclopropa[f]indazol-3-yl)-1H-benzo[d]imidazol-5-yl)-2-(tetrahydro-2H-pyran-4-yl)propanamide], the IC50 is 27 nM.

On to `C[C@@H](C(=O)N(C)c1ccc2[nH]c(-c3n[nH]c4c3C[C@@H]3C[C@]3(C)C4)nc2c1)C1CCOCC1` [Example 7, (R)—N-methyl-N-(2-((4aS,5aR)-5a-methyl-1,4,4a,5,5a,6-hexahydrocyclopropa[f]indazol-3-yl)-1H-benzo[d]imidazol-5-yl)-2-(tetrahydro-2H-pyran-4-yl)propanamide], for which the IC50 came out at 13 nM.

`CC(C(=O)N(C)c1ccc2[nH]c(-c3n[nH]c4c3C[C@@H]3C[C@]3(C)C4)nc2c1)C1CCOCC1` (stereo partly drawn) [Example 8, N-methyl-N-(2-((4aS,5aR)-5a-methyl-1,4,4a,5,5a,6-hexahydrocyclopropa[f]indazol-3-yl)-1H-benzo[d]imidazol-5-yl)-2-(tetrahydro-2H-pyran-4-yl)propanamide] returned an IC50 of 26 nM.

Compound `C[C@H](C(=O)N(C)c1ccc2[nH]c(-c3n[nH]c4c3C[C@@H]3C[C@]3(C)C4)nc2c1)C1CCOCC1` [Example 9, (S)—N-methyl-N-(2-((4aS,5aR)-5a-methyl-1,4,4a,5,5a,6-hexahydrocyclopropa[f]indazol-3-yl)-1H-benzo[d]imidazol-5-yl)-2-(tetrahydro-2H-pyran-4-yl)propanamide] returned a concentration for half-maximal inhibition (IC50) of 99 nM.

Turning to `CN(C(=O)C(F)(F)C1CCOCC1)c1ccc2[nH]c(-c3n[nH]c4c3C[C@@H]3C[C@]3(C)C4)nc2c1` [Example 11, 2,2-difluoro-N-methyl-N-(2-((4aS,5aR)-5a-methyl-1,4,4a,5,5a,6-hexahydrocyclopropa[f]indazol-3-yl)-1H-benzo[d]imidazol-5-yl)-2-(tetrahydro-2H-pyran-4-yl)acetamide], the IC50 was determined as 34 nM.

With `C[C@@H](C(=O)N(C)c1cc2nc(-c3n[nH]c4c3C[C@@H]3C[C@]3(C)C4)[nH]c2cc1F)N1CCOCC1` [Example 17, (S)—N-(6-fluoro-2-((4aS,5aR)-5a-methyl-1,4,4a,5,5a,6-hexahydrocyclopropa[f]indazol-3-yl)-1H-benzo[d]imidazol-5-yl)-N-methyl-2-morpholinopropanamide], the IC50 came out at 45 nM. The IC50 values of the last two compounds are within 1.5-fold of each other.

With `CCc1cc2[nH]c(-c3n[nH]c4c3C[C@@H]3C[C@]3(C)C4)nc2cc1N(C)C(=O)[C@H](C)N1CCOCC1` [Example 18, (S)—N-(6-ethyl-2-((4aS,5aR)-5a-methyl-1,4,4a,5,5a,6-hexahydrocyclopropa[f]indazol-3-yl)-1H-benzo[d]imidazol-5-yl)-N-methyl-2-morpholinopropanamide], inhibition was half-maximal at 91 nM (IC50).

`C[C@@H](C(=O)N(C)c1cc(F)c2[nH]c(-c3n[nH]c4c3C[C@@H]3C[C@]3(C)C4)nc2c1)N1CCOCC1=O` [Example 22, (S)—N-(7-fluoro-2-((4aS,5aR)-5a-methyl-1,4,4a,5,5a,6-hexahydrocyclopropa[f]indazol-3-yl)-1H-benzo[d]imidazol-5-yl)-N-methyl-2-(3-oxomorpholino)propanamide] registered an IC50 of 340 nM.

Compound `C[C@H](C(=O)N(C)c1cc(F)c2[nH]c(-c3n[nH]c4c3C[C@@H]3C[C@]3(C)C4)nc2c1)N1CCOCC1=O` [Example 23, (R)—N-(7-fluoro-2-((4aS,5aR)-5a-methyl-1,4,4a,5,5a,6-hexahydrocyclopropa[f]indazol-3-yl)-1H-benzo[d]imidazol-5-yl)-N-methyl-2-(3-oxomorpholino)propanamide] displayed a half-inhibitory concentration (IC50) of 304 nM. This IC50 and that of the compound before are within 1.5-fold of each other.

`Cc1cc2[nH]c(-c3n[nH]c4c3C[C@@H]3C[C@]3(C)C4)nc2cc1N(C)C(=O)CN1CCOC(CO)C1` (stereo partly drawn) [Example 27, 2-(2-(Hydroxymethyl)morpholino)-N-methyl-N-(6-methyl-2-((4aS,5aR)-5a-methyl-1,4,4a,5,5a,6-hexahydrocyclopropa[f]indazol-3-yl)-1H-benzo[d]imidazol-5-yl)acetamide]: half-maximal inhibition (IC50) required 289 nM.

On to `Cc1cc2[nH]c(-c3n[nH]c4c3C[C@@H]3C[C@]3(C)C4)nc2cc1N(C)C(=O)CN1CCO[C@@H](CO)C1` [Example 28, 2-((R)-2-(Hydroxymethyl)morpholino)-N-methyl-N-(6-methyl-2-((4aS,5aR)-5a-methyl-1,4,4a,5,5a,6-hexahydrocyclopropa[f]indazol-3-yl)-1H-benzo[d]imidazol-5-yl)acetamide], for which the IC50 worked out at 305 nM.

Consider `Cc1cc2[nH]c(-c3n[nH]c4c3C[C@@H]3C[C@]3(C)C4)nc2cc1N(C)C(=O)CN1CCOC(C)(C)C1` [Example 29, 2-(2,2-Dimethylmorpholino)-N-methyl-N-(6-methyl-2-((4aS,5aR)-5a-methyl-1,4,4a,5,5a,6-hexahydrocyclopropa[f]indazol-3-yl)-1H-benzo[d]imidazol-5-yl)acetamide], for which the IC50 worked out at 58 nM.

For `Cc1cc2[nH]c(-c3n[nH]c4c3C[C@@H]3C[C@]3(C)C4)nc2cc1N(C)C(=O)CN1CCO[C@H](C)C1` [Example 30, N-Methyl-N-(6-methyl-2-((4aS,5aR)-5a-methyl-1,4,4a,5,5a,6-hexahydrocyclopropa[f]indazol-3-yl)-1H-benzo[d]imidazol-5-yl)-2-((R)-2-methylmorpholino)acetamide], the concentration for half-maximal inhibition (IC50) amounted to 82 nM.

Regarding `Cc1cc2[nH]c(-c3n[nH]c4c3C[C@@H]3C[C@]3(C)C4)nc2cc1N(C)C(=O)CN1C[C@H](C)O[C@@H](C)C1` [Example 33, 2-((2S,6S)-2,6-Dimethylmorpholino)-N-methyl-N-(6-methyl-2-((4aS,5aR)-5a-methyl-1,4,4a,5,5a,6-hexahydrocyclopropa[f]indazol-3-yl)-1H-benzo[d]imidazol-5-yl)acetamide], the IC50 was determined as 68 nM.

`Cc1cc2[nH]c(-c3n[nH]c4c3C[C@@H]3C[C@]3(C)C4)nc2cc1N(C)C(=O)CC1CCOCC1` [Example 35, N-Methyl-N-(6-methyl-2-((4aS,5aR)-5a-methyl-1,4,4a,5,5a,6-hexahydrocyclopropa[f]indazol-3-yl)-1H-benzo[d]imidazol-5-yl)-2-(tetrahydro-2H-pyran-4-yl)acetamide] had an IC50 of 50 nM.

Compound `Cc1cc2[nH]c(-c3n[nH]c4c3C[C@@H]3C[C@]3(C)C4)nc2cc1N(C)C(=O)CN1CCOCC1=O` [Example 36, N-Methyl-N-(6-methyl-2-((4aS,5aR)-5a-methyl-1,4,4a,5,5a,6-hexahydrocyclopropa[f]indazol-3-yl)-1H-benzo[d]imidazol-5-yl)-2-(3-oxomorpholino)acetamide] came in with an IC50 of 96 nM.

Turning to `C[C@@H](C(=O)N(C)c1cc(O)c2[nH]c(-c3n[nH]c4c3C[C@@H]3C[C@]3(C)C4)nc2c1)N1CCOCC1` [Example 39, (S)—N-(7-hydroxy-2-((4aS,5aR)-5a-methyl-1,4,4a,5,5a,6-hexahydrocyclopropa[f]indazol-3-yl)-1H-benzo[d]imidazol-5-yl)-N-methyl-2-morpholinopropanamide], half-maximal inhibition (IC50) required 82 nM.

On to `Cc1c(N(C)C(=O)[C@H](C)N2CCOCC2)cc2nc(-c3n[nH]c4c3C[C@@H]3C[C@]3(C)C4)[nH]c2c1F` [Example 46, (S)—N-(7-fluoro-6-methyl-2-((4aS,5aR)-5a-methyl-1,4,4a,5,5a,6-hexahydrocyclopropa[f]indazol-3-yl)-1H-benzo[d]imidazol-5-yl)-N-methyl-2-morpholinopropanamide], for which the IC50 stood at 47 nM.

The compound `Cc1cc2[nH]c(-c3n[nH]c4c3C[C@@H]3C(F)(F)[C@]3(C)C4)nc2cc1N(C)C(=O)[C@H](C)N1CCOCC1` [Example 53, (S)—N-(2-((4aS,5aR)-5,5-difluoro-5a-methyl-1,4,4a,5,5a,6-hexahydrocyclopropa[f]indazol-3-yl)-5-methyl-1H-benzo[d]imidazol-6-yl)-N-methyl-2-morpholinopropanamide] had an IC50 of 10 nM. Against the preceding compound, the IC50 is about 4.7-fold lower.

In turn, `CN(C(=O)CC1CCOCC1)c1cc2nc(-c3n[nH]c4c3C[C@@H]3C[C@]3(C)C4)[nH]c2cc1C#N` [Example 54, N-(6-cyano-2-((4aS,5aR)-5a-methyl-1,4,4a,5,5a,6-hexahydrocyclopropa[f]indazol-3-yl)-1H-benzo[d]imidazol-5-yl)-N-methyl-2-(tetrahydro-2H-pyran-4-yl)acetamide] displayed an IC50 of 4570 nM. This IC50 lies about 460-fold higher than the previous one.

In a further test the target is Tropomyosin receptor kinase A (TRKA, NTRK1) (Homo sapiens (Human), UniProt P04629). As to the kind of experiment: TRKA (NTRK1) enzyme Z'-LYTE assay. Format: biochemical. Conditions: arithmetic mean of count n; test compound 1 uM, ATP 1 mM. How it is done: Tropomyosin Receptor Kinase a (TRKA) Activity, % Inhibition
Tropomyosin receptor kinase A (TRKA, NTRK1), sequence (P04629 33-796): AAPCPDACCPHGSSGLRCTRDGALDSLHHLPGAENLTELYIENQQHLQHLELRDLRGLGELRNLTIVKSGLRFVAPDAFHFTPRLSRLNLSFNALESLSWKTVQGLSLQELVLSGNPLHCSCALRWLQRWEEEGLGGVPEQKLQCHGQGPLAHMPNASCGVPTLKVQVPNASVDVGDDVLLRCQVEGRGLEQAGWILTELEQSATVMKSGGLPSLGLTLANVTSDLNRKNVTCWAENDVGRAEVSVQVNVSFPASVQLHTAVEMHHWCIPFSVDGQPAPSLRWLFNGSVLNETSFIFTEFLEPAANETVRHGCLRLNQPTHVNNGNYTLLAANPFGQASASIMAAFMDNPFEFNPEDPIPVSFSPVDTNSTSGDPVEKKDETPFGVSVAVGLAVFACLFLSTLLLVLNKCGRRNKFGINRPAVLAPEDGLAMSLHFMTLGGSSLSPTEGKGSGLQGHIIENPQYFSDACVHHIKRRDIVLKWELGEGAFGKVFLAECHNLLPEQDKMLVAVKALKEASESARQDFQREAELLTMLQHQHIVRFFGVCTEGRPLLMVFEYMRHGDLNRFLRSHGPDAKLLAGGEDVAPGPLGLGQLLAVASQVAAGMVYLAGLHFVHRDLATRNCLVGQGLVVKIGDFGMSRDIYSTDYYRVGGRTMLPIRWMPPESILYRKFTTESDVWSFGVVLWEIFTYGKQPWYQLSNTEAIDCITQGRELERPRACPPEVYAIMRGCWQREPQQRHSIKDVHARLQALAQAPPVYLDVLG
TRKA, also known as neurotrophic tyrosine kinase receptor type 1 (NTKR1) activity was determined by measuring the effect of a test compound on the activity against the NTRK1 enzyme using the ThermoFisher Z'-LYTE Assay fluorescence-based coupled enzyme format (www.thermofisher.com/selectscreen). […] The resulting effect value for the tested compound was compared to the assay controls to determine the % inhibition (%).
With `Cc1cc2[nH]c(-c3n[nH]c4c3C[C@@H]3C[C@]3(C)C4)nc2cc1N(C)C(=O)[C@H](C)C1CCOCC1` [Example 4, (R)—N-methyl-N-(6-methyl-2-((4aS,5aR)-5a-methyl-1,4,4a,5,5a,6-hexahydrocyclopropa[f]indazol-3-yl)-1H-benzo[d]imidazol-5-yl)-2-(tetrahydro-2H-pyran-4-yl)propanamide], the inhibition at 1 µM was 95%.
